Reference: paper PMC5584945, “Evaluation of robenidine analog NCL195 as a novel broad-spectrum antibacterial agent” (PLoS ONE, 2017)
Values after ≈ are worked out from the molar mass of the structure shown.

What was measured:
[1] = system: vancomycin-resistant enterococci (VRE); assay: MIC, broth micro-dilution (CLSI); assay type: cell-based, enterococci (porcine isolates); settings: for MIC90 / MIC50 / MIC: Enterococcus, VRE
S. aureus Xen29 = assay: Time-dependent killing assay; assay type: cell-based, Staphylococcus aureus; settings: for Time to clear all Xen29: 4× MIC
Description: Time kill assays were performed (in duplicate) essentially as described previously with slight modifications. Briefly, a few colonies of luminescent S. pneumoniae strain D39LUX or luminescent S. aureus ATCC 12600 (Xen29) from an overnight HBA were emulsified in normal saline and adjusted to A600 nm = 0.10 (equivalent to approx. 5 × 10^7 c.f.u. per ml) and the bacterial suspension further diluted 1:20 in saline. […] The compounds were serially diluted in 100% DMSO at 100× the final desired concentration and 100 μl of appropriate concentrations added to each 10 ml preparation. Duplicate cultures were incubated at 37°C (+ 5% CO2 for S. pneumoniae D39), with samples withdrawn at 0, 0.5, 1, 2, 4, 6, 8 and 24 h, serially diluted 10-fold and plated on HBA overnight at 37°C (+ 5% CO2 for S. pneumoniae D39) for bacterial enumeration.

[2] = S3 Table isolates, absence of FBS

| SMILES | MIC90 ([1]; 20 isolates) | MIC50 [1, 2] | MIC90 [1, 2] | MIC ([1]; VRE 1 (49 FR), absence of FBS) | MIC ([1]; VRE 2 (53 FR), absence of FBS) | MIC ([1]; VRE 3 (55 FR), absence of FBS) | MIC ([1]; VRE 4 (57 FR), absence of FBS) | MIC ([1]; VRE5 (58 FR), absence of FBS) | MIC ([1]; VRE 6 (59 FR), absence of FBS) | MIC ([1]; VRE 7 (270 G), absence of FBS) | MIC ([1]; VRE 8 (277 G), absence of FBS) | MIC ([1]; VRE 9 (61 FR), absence of FBS) | MIC ([1]; VRE 10 (62 FR), absence of FBS) | MIC ([1]; VRE 11 (284 G), absence of FBS) | MIC ([1]; VRE 12 (290 G), absence of FBS) | MIC ([1]; VRE 13 (251 G), absence of FBS) | MIC ([1]; VRE 14 (252 G), absence of FBS) | MIC ([1]; VRE 15 (63 FR), absence of FBS) | MIC ([1]; VRE 16 (60 FR), absence of FBS) | MIC ([1]; VRE 17 (45 FR), absence of FBS) | also measured |
| --- | --- | --- | --- | --- | --- | --- | --- | --- | --- | --- | --- | --- | --- | --- | --- | --- | --- | --- | --- | --- | --- |
| CCCCCCCCCC(=O)N[C@@H](Cc1c[nH]c2ccccc12)C(=O)N[C@H](CC(N)=O)C(=O)N[C@@H](CC(=O)O)C(=O)N[C@@H]1C(=O)NCC(=O)N[C@@H](CCCN)C(=O)N[C@@H](CC(=O)O)C(=O)N[C@H](C)C(=O)N[C@@H](CC(=O)O)C(=O)NCC(=O)N[C@H](CO)C(=O)N[C@@H]([C@H](C)CC(=O)O)C(=O)N[C@@H](CC(=O)c2ccccc2N)C(=O)O[C@@H]1C [Daptomycin, daptomycin] | 2 µg/mL (≈ 1.23 µM) | 1 µg/mL (≈ 0.617 µM) | 2 µg/mL (≈ 1.23 µM) | 1 µg/mL (≈ 0.617 µM) | 2 µg/mL (≈ 1.23 µM) | 2 µg/mL (≈ 1.23 µM) | 2 µg/mL (≈ 1.23 µM) | 2 µg/mL (≈ 1.23 µM) | 2 µg/mL (≈ 1.23 µM) | 1 µg/mL (≈ 0.617 µM) | 0.5 µg/mL (≈ 0.309 µM) | 1 µg/mL (≈ 0.617 µM) | 2 µg/mL (≈ 1.23 µM) | 0.5 µg/mL (≈ 0.309 µM) | 1 µg/mL (≈ 0.617 µM) | 0.5 µg/mL (≈ 0.309 µM) | 1 µg/mL (≈ 0.617 µM) | 1 µg/mL (≈ 0.617 µM) | 2 µg/mL (≈ 1.23 µM) | 2 µg/mL (≈ 1.23 µM) | MIC ([1]; VRE 18 (69 W), absence of FBS): 1 µg/mL (≈ 0.617 µM); MIC ([1]; VRE 19 (70 W), absence of FBS): 0.5 µg/mL (≈ 0.309 µM); MIC ([1]; VRE 20 (78 W), absence of FBS): 2 µg/mL (≈ 1.23 µM); MIC range [1, 2]: 0.5 to 2 µg/mL; Time to clear all Xen29 (S. aureus Xen29): 1 h |
| CC1(C)S[C@@H]2[C@H](NC(=O)[C@H](N)c3ccccc3)C(=O)N2[C@H]1C(=O)O [Ampicillin] | 2 µg/mL (≈ 5.72 µM) | 1 µg/mL (≈ 2.86 µM) | 2 µg/mL (≈ 5.72 µM) | 2 µg/mL (≈ 5.72 µM) | 1 µg/mL (≈ 2.86 µM) | 1 µg/mL (≈ 2.86 µM) | 1 µg/mL (≈ 2.86 µM) | 1 µg/mL (≈ 2.86 µM) | 2 µg/mL (≈ 5.72 µM) | 0.25 µg/mL (≈ 0.715 µM) | 2 µg/mL (≈ 5.72 µM) | 1 µg/mL (≈ 2.86 µM) | 2 µg/mL (≈ 5.72 µM) | 2 µg/mL (≈ 5.72 µM) | 1 µg/mL (≈ 2.86 µM) | 1 µg/mL (≈ 2.86 µM) | 0.5 µg/mL (≈ 1.43 µM) | 1 µg/mL (≈ 2.86 µM) | 1 µg/mL (≈ 2.86 µM) | 2 µg/mL (≈ 5.72 µM) | MIC ([1]; VRE 18 (69 W), absence of FBS): 1 µg/mL (≈ 2.86 µM); MIC ([1]; VRE 19 (70 W), absence of FBS): 1 µg/mL (≈ 2.86 µM); MIC ([1]; VRE 20 (78 W), absence of FBS): 1 µg/mL (≈ 2.86 µM); MIC range [1, 2]: 0.25 to 2 µg/mL; Time to clear all Xen29 (S. aureus Xen29): 6 h; Regrowth after 24 h (S. aureus Xen29; at the concentrations tested (2× and 4× MIC)): some S. aureus regrowth was observed |
